Source: patent US20260199484A1, “PROTAC DEGRADERS OF MLLT1 AND/OR MLLT3” (DARK BLUE THERAPEUTICS LTD, priority 2024, published 2026)

Tests used:
MLLT1 = target: T1, MLLT1 (Homo sapiens, UniProt Q03111); assay: MLLT1 DC50 and Dmax determination in MV4-11 cells (JESS, 4 h); format: cell-based; parameters: endogenous in cells; host or cells: MV4-11 (ATCC CRL-9591); conditions: MLLT1 degradation
T1 sequence (Q03111 1-559): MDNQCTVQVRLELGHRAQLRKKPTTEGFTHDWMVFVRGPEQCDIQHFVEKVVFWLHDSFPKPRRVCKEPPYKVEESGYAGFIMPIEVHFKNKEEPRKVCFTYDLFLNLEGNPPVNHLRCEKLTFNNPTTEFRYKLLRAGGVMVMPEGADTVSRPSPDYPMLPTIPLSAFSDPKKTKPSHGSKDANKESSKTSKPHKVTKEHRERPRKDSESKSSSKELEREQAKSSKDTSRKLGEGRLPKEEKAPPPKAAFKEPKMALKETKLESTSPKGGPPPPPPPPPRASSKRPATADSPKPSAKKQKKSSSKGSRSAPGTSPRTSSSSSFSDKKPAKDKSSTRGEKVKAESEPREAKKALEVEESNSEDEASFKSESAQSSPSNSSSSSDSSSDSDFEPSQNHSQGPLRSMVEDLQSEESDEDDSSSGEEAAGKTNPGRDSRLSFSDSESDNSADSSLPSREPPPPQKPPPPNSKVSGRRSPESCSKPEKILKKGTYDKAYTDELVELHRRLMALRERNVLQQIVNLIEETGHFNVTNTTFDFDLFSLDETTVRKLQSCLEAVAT
Method: MLLT1 degradation efficacy of compounds was tested in an automated chemiluminescent detection system (JESS, Cat #004-650). MV4-11 (#CRL-9591, ATCC) were seeded at a density of 1.2 million cells/well in a non-treated 6-well cell culture plate in 2.4 mL of complete medium (IMDM+10% FBS+1× Penicillin-Streptomycin). 10 mM DMSO stocks were prepared, and cells were treated with eight concentrations of test compounds, starting from 100 nM, 5-fold dilution, at a final DMSO concentration of 0.1% and incubated for 4 h at 37° C., 5% CO2. Post incubation, cells were centrifuged, washed with HBSS and lysed in 60 μL of RIPA buffer supplemented with Protease inhibitors (sc-24948; Santa Cruz). Protein estimation was done using BCA protein assay kit (23228; Pierce). 4 gg protein lysate (4 μL of 1 μg/μL lysate) was loaded into each well of the JESS cartridge (SM-W004; Bio-techne) and the JESS run was performed using 1:900 dilution of anti-human MLLT1 antibody (ABE2596; Merck) and 1:1200 dilution of anti-human GAPDH antibody (2118; Cell signaling technology) with anti-rabbit secondary detection module (DM-001; Bio-Techne). Post run, data was analysed using “Compass for SW” software for chemiluminescent detection. Peak fit was done using “dropped lines” method. Peak area for MLLT1 and GAPDH was used for the calculation of MLLT1 degradation with respect to DMSO control. Data was shown as “% degradation”. % Degradation was plotted against the respective doses (test compound concentration) and dose-response curve (DRC) was generated using four-parameter logistic equation (non-linear regression). Following parameters for each DRC was captured: DC50 (concentration in nM at which degradation is 50%, interpolated from standard curve and transformed to linear scale), Dmax (maximum % degradation observed). DC50 and Dmax data are captured in Table 7 for Example 1 and Example 110, which is a comparative example.

MV4-11 cells = assay: MV4-11 cellular proliferative assay, Assay Format B (CTG 2.0, 168 h); format: cell-based; conditions: Homo sapiens, Assay Method B, Table 7, read-out: MV4-11 Antiproliferation IC50
Outline: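 Cells seeded at 600/well in IMDM + 10% FBS, incubated overnight, then exposed 168 h (7 days) at 37 °C to 10 concentrations, 3-fold dilutions from 1 uM or 100 nM top dose (0.3% DMSO final). Viability by CTG 2.0 luminescence as % of DMSO control; curves fitted by four-parameter logistic regression.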

SMILES: Cc1nn(CCCCCCCC#Cc2cccc3c2CN(C2CCC(=O)NC2=O)C3=O)c2cc(C(=O)Nc3cc4[nH]c([C@H]5CCCN5C)cc4cn3)ccc12 (mixture of isomers) [Example 1, 1-(9-(2-(2,6-dioxopiperidin-3-yl)-1-oxoisoindolin-4-yl)non-8-yn-1-yl)-3-methyl-N-(2-((R)-1-methylpyrrolidin-2-yl)-1H-pyrrolo[3,2-c]pyridin-6-yl)-1H-indazole-6-carboxamide]
- DC50 (MLLT1): 0.5 nM
- Dmax (MLLT1; maximum % degradation observed): 87%
- IC50 (MV4-11 cells): 6.5 nM
